The supplement of paper PMC12463676, “Small-molecule dissolution of stress granules by redox modulation benefits ALS models” (Nature Chemical Biology, 2025)

Columns and labels:
lipoamide = compound: NC(=O)CCCCC1CCSS1 [lipoamide]; test: thermal stability z-score vs DMSO; higher = more thermally stabilized by treatment; settings: HeLa, lipoamide concentration 100 µM
Procedure: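 Cellular thermal proteome profiling in HeLa cells. Cells were treated with 100 µM lipoamide for 1 h, with or without 1 mM arsenate for a further 1 h, then heated to ten temperatures (37-66.3 °C), and soluble protein was quantified by TMT mass spectrometry relative to 0.1% DMSO controls. The thermal stability score (sum of log2 fold changes minus the abundance score) was transformed to a z-score; mean of n = 3 experiments.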

potassium arsenate = compound: O=[As]([O-])(O)O.[K+] [potassium arsenate]; test: as above; settings: HeLa; arsenate concentration 1 mM
Procedure: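 Cellular thermal proteome profiling in HeLa cells treated with 1 mM arsenate for 1 h (DMSO pretreatment), heated to ten temperatures (37-66.3 °C). Soluble protein was quantified by TMT mass spectrometry relative to DMSO controls; the thermal stability score was transformed to a z-score; mean of n = 3 experiments.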

[1] = arsenate co-treatment: 1 mM arsenate 1 h
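Note: each temperature applied for 3 min, abundance score taken as mean log2 fold change at the two lowest temperatures, z-score obtained by mean subtraction and division by SD.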

UniProt Q14203, sequence (Q14203 whole entry): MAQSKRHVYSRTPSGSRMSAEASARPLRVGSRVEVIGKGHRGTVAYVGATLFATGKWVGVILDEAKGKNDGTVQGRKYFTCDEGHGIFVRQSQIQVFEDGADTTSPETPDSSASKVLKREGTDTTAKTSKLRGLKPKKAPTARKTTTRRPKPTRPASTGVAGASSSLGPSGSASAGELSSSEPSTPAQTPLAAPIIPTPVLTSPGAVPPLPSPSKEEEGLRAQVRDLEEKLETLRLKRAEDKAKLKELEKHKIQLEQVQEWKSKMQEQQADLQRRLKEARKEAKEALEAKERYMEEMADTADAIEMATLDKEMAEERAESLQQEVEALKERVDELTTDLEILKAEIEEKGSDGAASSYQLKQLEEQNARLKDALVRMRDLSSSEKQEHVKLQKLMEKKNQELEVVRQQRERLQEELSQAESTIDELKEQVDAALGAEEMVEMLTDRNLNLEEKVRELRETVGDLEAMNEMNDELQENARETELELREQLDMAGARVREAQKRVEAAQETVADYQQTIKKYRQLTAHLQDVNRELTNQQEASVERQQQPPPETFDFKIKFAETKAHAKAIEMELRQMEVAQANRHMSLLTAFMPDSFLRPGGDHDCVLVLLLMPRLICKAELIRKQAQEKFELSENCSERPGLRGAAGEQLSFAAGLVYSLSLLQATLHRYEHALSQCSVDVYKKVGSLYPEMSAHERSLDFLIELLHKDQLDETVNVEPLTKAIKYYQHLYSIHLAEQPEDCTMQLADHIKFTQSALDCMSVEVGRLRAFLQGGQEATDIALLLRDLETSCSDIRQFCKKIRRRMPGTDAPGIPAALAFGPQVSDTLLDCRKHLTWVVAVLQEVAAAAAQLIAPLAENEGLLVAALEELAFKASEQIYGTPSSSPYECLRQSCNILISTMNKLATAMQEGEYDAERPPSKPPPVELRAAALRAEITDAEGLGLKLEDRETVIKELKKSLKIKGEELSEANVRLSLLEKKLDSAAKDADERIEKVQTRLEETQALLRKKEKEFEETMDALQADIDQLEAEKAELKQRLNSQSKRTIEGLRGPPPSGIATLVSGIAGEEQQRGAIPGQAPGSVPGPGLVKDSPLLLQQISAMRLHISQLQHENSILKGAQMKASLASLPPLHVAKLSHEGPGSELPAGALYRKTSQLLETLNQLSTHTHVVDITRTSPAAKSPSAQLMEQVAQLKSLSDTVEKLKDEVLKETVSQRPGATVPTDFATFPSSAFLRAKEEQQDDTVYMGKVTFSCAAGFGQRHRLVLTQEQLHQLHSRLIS
UniProt Q8WWV3, sequence (Q8WWV3 whole entry): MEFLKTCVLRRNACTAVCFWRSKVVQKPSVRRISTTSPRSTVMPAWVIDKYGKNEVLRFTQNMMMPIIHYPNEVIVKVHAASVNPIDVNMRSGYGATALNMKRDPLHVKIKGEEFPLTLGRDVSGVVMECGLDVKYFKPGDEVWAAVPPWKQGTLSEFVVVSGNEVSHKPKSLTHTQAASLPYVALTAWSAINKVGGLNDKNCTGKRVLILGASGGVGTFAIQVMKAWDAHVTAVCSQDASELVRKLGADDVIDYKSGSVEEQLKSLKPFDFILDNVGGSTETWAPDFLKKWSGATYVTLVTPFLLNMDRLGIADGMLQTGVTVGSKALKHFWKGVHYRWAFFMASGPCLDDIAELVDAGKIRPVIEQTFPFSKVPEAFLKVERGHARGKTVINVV
UniProt P32320, sequence (P32320 whole entry): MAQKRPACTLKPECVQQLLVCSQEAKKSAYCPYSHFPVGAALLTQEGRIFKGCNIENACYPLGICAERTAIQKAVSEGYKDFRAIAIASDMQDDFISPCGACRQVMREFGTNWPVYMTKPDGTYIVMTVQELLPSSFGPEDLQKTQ
UniProt Q15771, sequence (Q15771 whole entry): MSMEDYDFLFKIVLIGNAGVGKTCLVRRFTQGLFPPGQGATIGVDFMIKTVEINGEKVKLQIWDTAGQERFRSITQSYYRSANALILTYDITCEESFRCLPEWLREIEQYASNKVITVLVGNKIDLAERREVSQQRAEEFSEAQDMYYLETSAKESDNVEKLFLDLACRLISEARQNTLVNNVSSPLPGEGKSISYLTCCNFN
UniProt Q969S3, sequence (Q969S3 whole entry): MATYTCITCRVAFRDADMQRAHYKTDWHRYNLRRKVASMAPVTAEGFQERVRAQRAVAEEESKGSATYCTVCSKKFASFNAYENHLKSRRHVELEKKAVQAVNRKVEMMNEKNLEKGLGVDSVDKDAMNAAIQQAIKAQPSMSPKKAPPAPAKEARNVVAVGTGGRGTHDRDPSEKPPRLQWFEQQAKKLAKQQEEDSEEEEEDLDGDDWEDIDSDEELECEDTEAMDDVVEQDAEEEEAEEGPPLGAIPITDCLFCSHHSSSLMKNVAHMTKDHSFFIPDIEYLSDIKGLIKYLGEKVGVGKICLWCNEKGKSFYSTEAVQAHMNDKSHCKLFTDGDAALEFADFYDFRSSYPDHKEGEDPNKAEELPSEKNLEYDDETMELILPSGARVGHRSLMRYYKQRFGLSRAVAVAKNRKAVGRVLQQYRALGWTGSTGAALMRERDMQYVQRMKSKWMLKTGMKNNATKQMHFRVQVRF
UniProt Q13451, sequence (Q13451 whole entry): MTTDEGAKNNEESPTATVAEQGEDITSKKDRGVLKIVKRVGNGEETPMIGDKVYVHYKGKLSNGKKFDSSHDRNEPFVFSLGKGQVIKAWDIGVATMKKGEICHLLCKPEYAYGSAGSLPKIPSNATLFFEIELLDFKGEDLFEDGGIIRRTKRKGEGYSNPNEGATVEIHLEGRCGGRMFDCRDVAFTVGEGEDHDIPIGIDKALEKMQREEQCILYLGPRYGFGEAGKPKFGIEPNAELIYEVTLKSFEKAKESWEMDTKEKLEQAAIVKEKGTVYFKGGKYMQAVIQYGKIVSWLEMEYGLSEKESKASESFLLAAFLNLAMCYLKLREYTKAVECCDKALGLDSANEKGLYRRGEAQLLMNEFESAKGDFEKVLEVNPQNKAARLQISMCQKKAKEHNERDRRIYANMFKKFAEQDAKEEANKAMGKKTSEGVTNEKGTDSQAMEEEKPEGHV
UniProt Q9UFW8, sequence (Q9UFW8 whole entry): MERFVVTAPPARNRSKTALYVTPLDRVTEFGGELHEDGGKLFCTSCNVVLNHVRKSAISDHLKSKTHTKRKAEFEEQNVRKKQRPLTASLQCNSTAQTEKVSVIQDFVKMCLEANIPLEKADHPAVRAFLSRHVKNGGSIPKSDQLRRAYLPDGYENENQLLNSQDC
UniProt O75347, sequence (O75347 whole entry): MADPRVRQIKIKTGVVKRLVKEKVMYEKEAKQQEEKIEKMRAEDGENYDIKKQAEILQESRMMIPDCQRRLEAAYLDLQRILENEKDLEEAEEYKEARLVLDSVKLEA
UniProt P12081, sequence (P12081 whole entry): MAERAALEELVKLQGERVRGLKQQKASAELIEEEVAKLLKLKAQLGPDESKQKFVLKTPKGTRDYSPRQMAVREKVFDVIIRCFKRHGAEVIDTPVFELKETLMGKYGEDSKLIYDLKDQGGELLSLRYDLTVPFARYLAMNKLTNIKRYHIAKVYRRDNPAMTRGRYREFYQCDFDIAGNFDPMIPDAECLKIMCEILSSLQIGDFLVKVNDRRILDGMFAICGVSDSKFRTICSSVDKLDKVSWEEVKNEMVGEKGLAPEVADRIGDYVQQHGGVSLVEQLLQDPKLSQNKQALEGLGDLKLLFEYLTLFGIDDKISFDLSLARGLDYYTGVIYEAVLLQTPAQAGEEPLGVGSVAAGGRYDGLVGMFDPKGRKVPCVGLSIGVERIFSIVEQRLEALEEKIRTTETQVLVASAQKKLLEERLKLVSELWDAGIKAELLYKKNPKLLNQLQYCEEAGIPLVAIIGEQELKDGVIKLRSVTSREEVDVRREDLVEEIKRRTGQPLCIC
UniProt Q96GC9, sequence (Q96GC9 whole entry): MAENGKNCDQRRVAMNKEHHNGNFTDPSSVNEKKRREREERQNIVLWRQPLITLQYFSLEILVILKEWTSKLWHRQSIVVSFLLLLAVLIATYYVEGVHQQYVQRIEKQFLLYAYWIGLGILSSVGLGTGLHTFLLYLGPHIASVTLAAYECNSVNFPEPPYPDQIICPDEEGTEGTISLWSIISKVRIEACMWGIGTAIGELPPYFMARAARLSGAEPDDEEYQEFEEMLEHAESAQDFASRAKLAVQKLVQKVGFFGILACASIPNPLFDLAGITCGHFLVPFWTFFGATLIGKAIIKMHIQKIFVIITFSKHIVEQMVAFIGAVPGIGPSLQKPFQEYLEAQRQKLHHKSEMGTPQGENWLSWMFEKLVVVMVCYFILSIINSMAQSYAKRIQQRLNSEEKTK
UniProt Q8TF64, sequence (Q8TF64 whole entry): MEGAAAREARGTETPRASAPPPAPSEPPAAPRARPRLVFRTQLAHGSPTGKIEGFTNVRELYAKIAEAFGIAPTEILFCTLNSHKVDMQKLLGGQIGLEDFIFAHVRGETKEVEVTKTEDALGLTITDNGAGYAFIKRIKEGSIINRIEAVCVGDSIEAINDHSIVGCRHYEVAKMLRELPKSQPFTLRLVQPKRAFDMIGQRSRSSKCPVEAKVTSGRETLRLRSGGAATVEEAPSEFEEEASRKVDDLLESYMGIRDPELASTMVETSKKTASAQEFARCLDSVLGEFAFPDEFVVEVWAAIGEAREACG
UniProt P60983, sequence (P60983 whole entry): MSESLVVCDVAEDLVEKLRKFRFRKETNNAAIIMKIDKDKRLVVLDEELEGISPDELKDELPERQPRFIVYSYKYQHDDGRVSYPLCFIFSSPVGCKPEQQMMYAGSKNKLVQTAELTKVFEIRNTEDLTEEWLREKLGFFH
UniProt Q99426, sequence (Q99426 whole entry): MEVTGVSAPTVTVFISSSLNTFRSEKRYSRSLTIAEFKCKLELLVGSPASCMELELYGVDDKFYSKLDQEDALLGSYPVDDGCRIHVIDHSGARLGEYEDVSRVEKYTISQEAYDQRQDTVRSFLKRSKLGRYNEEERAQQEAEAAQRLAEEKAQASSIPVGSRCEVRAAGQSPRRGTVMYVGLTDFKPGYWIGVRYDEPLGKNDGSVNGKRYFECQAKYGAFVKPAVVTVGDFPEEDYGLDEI

Row | Target | thermal stability z-score (lipoamide; [1]) | thermal stability z-score (lipoamide; arsenate co-treatment: none) | thermal stability z-score (potassium arsenate)
1 | RTN4IP1 (UniProt Q8WWV3) | -0.324 | -0.26 | 0.0315
2 | FKBP5 (UniProt Q13451) | -0.637 | -0.429 | -0.667
3 | C20ORF27 (UniProt Q9GZN8) | 0.247 | 0.189 | -0.583
4 | TADA3 (UniProt O75528) | 0.0748 | 0.099 | 0.199
5 | ATL3 (UniProt Q6DD88) | -0.399 | -0.0961 | 0.731
6 | TLE4 (UniProt Q04727) | -0.201 | 0.36 | 0.289
7 | TFB1M (UniProt Q8WVM0) | -0.367 | 0.233 | 0.0871
8 | STK38 (UniProt Q15208) | -0.703 | -0.424 | -0.182
9 | ILKAP (UniProt Q9H0C8) | 0.624 | 0.292 | -0.406
10 | TBCA (UniProt O75347) | 0.458 | 1.12 | 0.264
11 | UEVLD (UniProt Q8IX04) | 0.183 | 0.107 | 0.0354
12 | GARS (UniProt P41250) | -0.224 | -0.223 | -0.919
13 | EIF3G (UniProt O75821) | 0.0353 | -0.0823 | 0.711
14 | PIK3R2 (UniProt O00459) | -0.263 | 0.416 | -0.17
15 | ARPC5L (UniProt Q9BPX5) | 0.0991 | -0.00985 | -0.302
16 | GOPC (UniProt Q9HD26) | -0.587 | 0.0054 | 0.591
17 | HARS (UniProt P12081) | -0.0978 | -0.228 | 1.38
18 | XPO4 (UniProt Q9C0E2) | -0.237 | -0.0735 | -0.27
19 | DCTN1 (UniProt Q14203) | -0.27 | -0.171 | 0.369
20 | ZNF622 (UniProt Q969S3) | -0.153 | -0.393 | 1.39
21 | THADA (UniProt Q6YHU6) | -0.42 | -0.349 | -0.361
22 | SKIV2L2 (UniProt P42285) | 0.46 | 0.334 | 0.0276
23 | CCDC86 (UniProt Q9H6F5) | -0.342 | -0.895 | -2.01
24 | URGCP (UniProt Q8TCY9) | 0.532 | 0.322 | 1.12
25 | RAB30 (UniProt Q15771) | -0.315 | -0.0453 | 0.498
26 | CXORF38 (UniProt Q8TB03) | 0.486 | 0.307 | -1.87
27 | TMEM106B (UniProt Q9NUM4) | -0.167 | 0.154 | 0.192
28 | PRPF19 (UniProt Q9UMS4) | 1.23 | 0.686 | -0.692

Row | Target | thermal stability z-score (lipoamide; [1]) | thermal stability z-score (lipoamide; arsenate co-treatment: none) | thermal stability z-score (potassium arsenate)
29 | TRUB1 (UniProt Q8WWH5) | -0.102 | 0.175 | 0.231
30 | CGGBP1 (UniProt Q9UFW8) | -0.266 | -0.574 | -0.0749
31 | CAND1 (UniProt Q86VP6) | 0.463 | 0.225 | -0.122
32 | PEF1 (UniProt Q9UBV8) | 0.534 | 0.979 | 0.494
33 | ADSL (UniProt P30566) | -0.0252 | -0.429 | -1.53
34 | JAK1 (UniProt P23458) | -0.359 | 0.296 | 0.123
35 | GMFB (UniProt P60983) | 0.0996 | 0.368 | -0.675
36 | COG5 (UniProt Q9UP83) | -0.297 | -0.0509 | 0.793
37 | ARL2 (UniProt P36404) | -0.405 | -0.0766 | 0.664
38 | HOMER3 (UniProt Q9NSC5) | 0.5 | 0.526 | 0.462
39 | VMP1 (UniProt Q96GC9) | -1.19 | -1.69 | -0.372
40 | TBCB (UniProt Q99426) | 0.475 | -0.253 | -1.55
41 | STOML2 (UniProt Q9UJZ1) | -0.324 | 0.0393 | -0.147
42 | NEK9 (UniProt Q8TD19) | -0.25 | -0.366 | 0.719
43 | ZDHHC5 (UniProt Q9C0B5) | -0.762 | 0.0706 | -0.438
44 | GRB2 (UniProt P62993) | 0.496 | 0.364 | 0.0852
45 | PARP9 (UniProt Q8IXQ6) | -0.239 | -0.1 | -0.0858
46 | GIPC3 (UniProt Q8TF64) | -0.481 | -0.0967 | -0.214
47 | C7ORF50 (UniProt Q9BRJ6) | -0.995 | -0.353 | -0.593
48 | CDA (UniProt P32320) | 0.868 | 1 | 1.03
49 | SEMA3C (UniProt Q99985) | -0.0185 | -0.402 | -0.147
50 | RPL7 (UniProt P18124) | 1.02 | 0.379 | -0.13
51 | UQCR10 (UniProt Q9UDW1) | -0.399 | 0.0606 | 0.553
52 | CKS2 (UniProt P33552) | 0.199 | 0.17 | 0.179
53 | SDSL (UniProt Q96GA7) | 0.0811 | 1.46 | -0.745
54 | PCNT (UniProt O95613) | -0.505 | 0.496 | 0.281
55 | TARS (UniProt P26639) | 0.0423 | -0.0639 | 0.853
